Data taken from patent US20190309053A1, “PROLONGATION OF SURVIVAL OF AN ALLOGRAFT BY INHIBITING COMPLEMENT ACTIVITY” (Alexion Pharmaceuticals, Inc., priority 2004, published 2019).

Tests used:
[1] = system: cardiac allograft in presensitized rats; details: cited from earlier work
[2] = system: terminal complement activity; test: Complement hemolytic assay of recipient sera; assay type: in vivo, mouse; details: presensitized heart recipients, POD3
Experimental: The purified anti-C5 mAb was serially diluted twofold (175-0.1 μg/ml) in GVB^2+ buffer (gelatin Veronal-buffered saline: 0.1% gelatin, 141 mM NaCl, 0.5 mM MgCl2, 0.15 mM CaCl2), and 1.8 mM sodium barbital) and added in triplicate (50 μl/well) to a 96-well plate. BALB/c mouse serum was diluted to 40% v/v with GVB^2+ buffer and added […] to the rows of the same 96-well plate such that the final concentration of BALB/c mouse serum in each well was 20%. The plate was then incubated at room temperature for approximately 30 min while chicken erythrocytes were prepared. Chicken erythrocytes were washed 5×1 ml with GVB^2+ buffer and resuspended to a final concentration of 5×10^7/ml in GVB^2+. Four milliliters of the chicken erythrocytes were sensitized by adding anti-chicken RBC polyclonal antibody (Intercell Technologies, Hopewell, N.J., 0.1% v/v) and the cells were incubated at 4° C. for 15 min with frequent vortexing. The cells were then washed 2×1 ml with GVB^2+ and resuspended to a final volume of 2.4 ml in GVB^2+. […] The plate was read at OD 415 nm using a microplate reader and the percentage of hemolysis was determined using this formula: […]
In the current study, terminal complement activity was measured by assessing the ability of recipient mouse sera to lyse antibody presensitized chicken erythrocytes and was compared at the same time-point (POD3).

[3] = system: C3H heart allografts in presensitized BALB/c recipients; test: Graft histology (H&E), presensitized model (Examples 1-2); assay type: in vivo, mouse; details: at rejection or POD100
From the text: (§1) Tissue samples were fixed in 10% buffered formaldehyde. Specimens were then embedded in paraffin, and sectioned for H&E staining. The microscopic sections were examined in a blinded fashion for severity of rejection by a pathologist. Criteria for graft rejection included the presence of vasculitis, thrombosis, hemorrhage and lymphocyte infiltration. These changes were scored as: 0, no change; 1, minimum change; 2, mild change; 3, moderate change; or 4, marked change.
(§2) However, the inhibitory effect of functionally blocking terminal complement cascade at the C5 level in highly sensitized recipients is unknown.

[4] = system: C3H heart allografts in BALB/c mice presensitized with C3H skin grafts; test: Histological changes of heart allografts at necropsy (Example 4); assay type: in vivo, mouse; details: endpoint, 0 normal to 4 marked change
From the text: as §1
(§3) This model is designed to mimic presensitized transplantation in humans, especially in relation to accelerated humoral rejection. Recipient mice were split into eight groups of six to eight mice each. The treatments were as follow.

[5] = system: heart allografts in presensitized mouse recipients; test: Immunoperoxidase staining of heart allografts; assay type: in vivo; set-up: key to C3 immunoperoxidase staining grade / C5 immunoperoxidase staining grade / CD4 immunoperoxidase staining grade / CD8 immunoperoxidase staining grade / Mac-1 immunoperoxidase staining grade / IgG immunoperoxidase staining grade / IgM immunoperoxidase staining grade: 0, negative; 1+, equivocal; 2+, weak; 3+, moderate; 4+, intense
From the text: Four micrometer sections were cut from tissue samples embedded in Tissue-Tek O.C.T gel (Optimum Cutting Temperature, Skura Finetek, Torrance, Calif.) mounted on gelatin-coated glass microscope slides and stained by a standard indirect avidin-biotin immunoperoxidase staining method using an Elite Vectastain ABC kit (Vector Laboratories Inc., Burlingame, Calif.). Specimens were stained for CD4^+ and CD8^+ cells with biotin-conjugated rat anti-mouse CD4 mAb (clone YTS 191.1.2, Cedarlane Laboratories Ltd., Hornby, Ontario, Canada) and biotin-conjugated rat anti-mouse CD8 mAb (clone 53-6.7, Pharmingen, Franklin Lakes, N.J.), respectively. Intragraft monocyte/macrophage infiltration was detected by staining with biotin-conjugated rat anti-mouse Mac-1 mAb (Cedarlane Laboratories Ltd., Hornby, Ontario, Canada). Mouse IgG and IgM deposition in grafts was detected using biotin-conjugated goat anti-mouse-IgG and goat anti-mouse-IgM (Cedarlane). For identification of complement deposition, sections were serially incubated with goat anti-C3 or anti-C5 polyclonal Abs (Quidel, San Diego, Calif.), biotinylated rabbit anti-goat IgG (Vector Laboratories), and HRP-conjugated-streptavidin (Zymed Laboratories, South San Francisco, Calif.). Slides were washed with phosphate-buffered saline between steps, and examined under light microscopy. Negative controls were performed by omitting the primary antibodies. The immunostaining was scored in five high-power fields of each section, and five independent experiments were performed. The sections of immunoperoxidase staining were graded from 0 to 4+ according to the staining intensity: 0, negative; 1+, equivocal; 2+, weak staining; 3+, moderate staining; and 4+, very intensive staining.

[6] = system: C3H heart allografts in BALB/c mice presensitized with C3H skin grafts; test: Accelerated rejection in presensitized heart transplantation model, allograft survival (Example 4); assay type: in vivo, mouse; details: BB5.1 40 mg/kg i.p. daily from day -1, cyclosporin A 15 mg/kg s.c. daily, cyclophosphamide 40 mg/kg i.v. days 0 and 1
From the text: In these experiments, the presensitization was brought about by prior transplantation of a skin graft. In general, presensitization can occur not only as a result of having received an earlier allograft, but can also be caused by having received multiple blood transfusions or in women who have been pregnant. Besides such presensitization methods, allografts with an ABO mismatch will be rapidly attacked and rejected because of preformed antibodies to the ABO antigens unless steps are taken to prevent such an attack.
as §3
Group 3″ (BB5.1 alone)—mice were administered the anti-mouse complement monoclonal antibody BB5.1 at a dose of 40 mg/kg body weight delivered intraperitoneally on a daily basis beginning at day −1 and continuing until the endpoint.
Group 4″ (cyclophosphamide alone)—mice were administered cyclophosphamide intravenously at a dose of 40 mg/kg body weight on each of days 0 and 1.
Group 6″ (BB5.1 plus cyclophosphamide)—mice were administered BB5.1 intraperitoneally at a dose of 40 mg/kg body weight on a daily basis beginning at day −1 and continuing until the endpoint. […]

[7] = system: C3H heart allografts in presensitized BALB/c recipients; test: Heart allograft survival in presensitized recipients (Examples 1-2); assay type: in vivo, mouse; details: C3H heart in skin-presensitized BALB/c; mean±SD; CsA 15 mg/kg/day s.c., CyP 40 mg/kg/day i.v. day 0 and 1, anti-C5 mAb 40 mg/kg/day i.p.
From the text: Rejection was defined as complete necrosis of the skin grafts.
as §2

[8] = system: anti-donor specific IgG and IgM antibodies; test: Flow cytometry of circulating anti-donor antibodies; assay type: in vivo, mouse; details: presensitized recipients, POD3
Experimental: The circulating anti-donor specific IgG and IgM antibodies were evaluated in the recipient serum by FACScan flow cytometry (Becton Dickinson, Mountain View, Calif.). Glotz et al., (1993); Tyan et al. (1994). Briefly, C3H mouse splenocytes were isolated and incubated at 37° C. for 30 minutes with serum from naive control and experimental groups. To stain for total IgG, IgG1, IgG2a, IgG2b and IgM, the cells were washed and incubated with FITC-conjugated goat antibody specific for the Fc portion of mouse IgG or with phycoerythrin-conjugated goat antibody specific for the μ-chain of mouse IgM (Jackson ImmunoResearch Laboratories, West Grove, Pa.), or with FITC-conjugated goat anti-mouse IgG1 (CALTAG Laboratories, Burlingame, Calif.), or with FITC-conjugated goat anti-mouse IgG2a (CALTAG), or with FITC-conjugated goat anti-mouse IgG2b (CALTAG). After 1 hour of staining at 4° C., the cells were washed with PBS, resuspended at 5×10^6/mL, and analyzed by flow cytometry for mean channel fluorescence intensity, which represents the antibody-binding reactivity.

Molecule | time before graft rejection ([1]; Pruitt and Bollinger (1991), similar presensitized rat allograft model, sCR1 alone) | average time at which grafts were rejected ([1]; presensitized rats, cyclosporin A 10 mg/kg/day i.m. from two days prior to transplant, sCR1 single i.v. bolus 15 mg/kg before reperfusion) | terminal complement activity (lysis of antibody presensitized chicken erythrocytes by recipient sera) [2] | graft histology (pathological features) [3] | Hemo (hemorrhage) median histological score [4] | Infar (infarction) median histological score [4] | Lymph (lymphocyte infiltration) median histological score [4] | Throm (thrombosis) median histological score [4] | Vasc (vasculitis) median histological score [4] | intragraft Mac-1+ cell infiltration (monocytes and macrophages) [5] | C3 immunoperoxidase staining grade ([5]; necropsy POD3) | C5 immunoperoxidase staining grade ([5]; necropsy POD3) | CD4 immunoperoxidase staining grade ([5]; necropsy POD3) | CD8 immunoperoxidase staining grade ([5]; necropsy POD3) | IgG immunoperoxidase staining grade ([5]; necropsy POD3) | IgM immunoperoxidase staining grade ([5]; necropsy POD3) | Mac-1 immunoperoxidase staining grade ([5]; necropsy POD3) | Mean survival time [6] | heart graft survival (grafts were rejected in) [7] | circulating anti-donor IgG levels [8]
sCR1: soluble complement receptor 1; binds complements C3b and C4b | increased time before graft rejection | 44 days | – | – | – | – | – | – | – | – | – | – | – | – | – | – | – | – | – | –
O=P1(N(CCCl)CCCl)NCCCO1 (centres unmarked) [Cyclophosphamide, cyclophosphamide] | – | – | had no effect | typical pathological features of ACHR | 2.0 | 4.0 | 0.0 | 3.0 | 2.0 | moderate | 3+ | 3+ | 1+ | 1+ | 3+ | 1+ | 3+ | 3.3 ± 0.5 days | 3.3 ± 0.5 days | partially down-regulated
